Data as given in patent US20090258046A1, “COMPOSITION, FORMULATIONS AND KIT FOR TREATMENT OF RESPIRATORY AND LUNG DISEASE WITH NON-GLUCOCORTICOID STEROIDS AND/OR UBIQUINONE AND A BRONCHODILATING AGENT” (priority 2001, published 2009).

Columns and labels:
[1] = system: Intracellular adenosine in various Rat Tissues; assay: In vivo effect on tissue adenosine levels in rats (HPLC of 1,N6-ethenoadenosine); parameters: species or system Fischer 344 rats; settings: for Intracellular adenosine, Brain / Intracellular adenosine, Heart / Intracellular adenosine, Liver: mean ± SEM
Text: […] […] Hearts were removed from animals and flash frozen in liquid nitrogen with 10 seconds of death. Liver and lungs were removed en bloc and flash frozen with 30 seconds of death. Brain tissue was subsequently dissected.

[2] = system: HT-29 SF cells; assay: Reversal of DHEA effect on cell cycle by medium supplements (flow cytometry); assay type: cell-based, human; settings: for prevention of DHEA-induced S phase depletion: 2 FM MVA, 15 Fg/ml CH, RN 30 FM
[3] = system: HT-29 SF cells; assay: Reversal of DHEA-mediated growth inhibition by medium supplements; assay type: cell-based, human; settings: 25 μM DHEA, 48 hour treatment; 2 μM MVA, 80 μM SQ, 15 μg/ml CH, RN 30 μM each, DN 20 μM each
Protocol: RN plus DN, or MVA plus CH plus RN, or medium that was not supplemented. All compounds were obtained from Sigma Chemical Co. (St. Louis, Mo.) Cholesterol was solubilized in ethanol immediately before use. […] In A, the medium was supplemented with 2 μM MVA, 80 μM SQ, 15 μg/ml CH, or MVA plus CH (MVA+CH) or was not supplemented (CON). […] RN plus DN (RN+DN); or MVA plus CH plus RN (MVA+CH+RN). […] Columns represent cell growth percentage of untreated controls; bars represent SEM. Increase in cell number in untreated controls was […]. Each data point represents quadruplicate dishes from four independent experiments. Statistical analysis was performed using Student's t test κ ρ<0.01; φ ρ<, 0.001; compared to treated controls.

[4] = molecular target: purified G6PDH (Homo sapiens, UniProt P11413); assay: Enzymatic assay of purified G6PDH (absorbance at 340 nm); settings: in vitro
Protocol: All experiments were repeated 4 times.
A second group was added different concentrations of a CoQ of long side chain (in triplicate), and a third group received a CoQ of short side chain (in triplicate), both at various doses in the μM range.
The reaction was started by addition of the enzyme, and the increase in absorbance at 340 nm was measured for 5 minutes. Each data point was conducted in triplicate, and the fill experiment was repeated 4 times.

[5] = system: HT-29 SF cells; assay: DHEA effect on cell cycle distribution (flow cytometry, propidium iodide); assay type: cell-based, human
[6] = system: HT-29 SF cells; assay: DHEA effect on cell growth (Coulter counter cell number)
Protocol: Cell cultures, HT-29 SF cells, which represent a subline of HY-29 cells (ATCC, Rockville, Md.) and are adapted for growth in completely defined serum-free PC-1 medium (Ventrex, Portland, Me.), were obtained. Stock cultures were maintained in this medium at 37° (in a humidified atmosphere containing 5% CO2).

[7] = folinic acid 50 mg/kg intraperitoneally once daily for fourteen days
[8] = high dose methyltestosterone daily for two weeks, versus control
[9] = methyltestosterone 40 mg/kg by gavage once daily for fourteen days

Chain of purified G6PDH (P11413 whole entry): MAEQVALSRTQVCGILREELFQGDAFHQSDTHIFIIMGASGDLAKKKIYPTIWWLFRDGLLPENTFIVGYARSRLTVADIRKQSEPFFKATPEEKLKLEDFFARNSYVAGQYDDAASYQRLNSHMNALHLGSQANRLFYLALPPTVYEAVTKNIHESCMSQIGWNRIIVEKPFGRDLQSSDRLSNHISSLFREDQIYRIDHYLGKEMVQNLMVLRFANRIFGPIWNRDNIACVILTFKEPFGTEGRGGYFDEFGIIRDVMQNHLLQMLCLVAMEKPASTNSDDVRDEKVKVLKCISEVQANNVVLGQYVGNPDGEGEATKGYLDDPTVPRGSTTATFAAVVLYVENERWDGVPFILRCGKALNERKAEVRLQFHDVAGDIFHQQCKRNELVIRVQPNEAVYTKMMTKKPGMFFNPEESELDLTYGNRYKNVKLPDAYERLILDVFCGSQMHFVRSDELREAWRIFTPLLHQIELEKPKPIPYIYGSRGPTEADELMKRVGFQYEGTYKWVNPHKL

Nc1nc(=O)c2c([nH]1)NCC(CNc1ccc(C(=O)N[C@@H](CCC(=O)O)C(=O)O)cc1)N2C=O (mixture of isomers) [Folinic Acid, Folinic acid]
Intracellular adenosine, Brain [1, 7]: 0.72 ± 0.09 nmols/mg protein | Intracellular adenosine, Heart [1, 7]: 12.4 ± 2.1 nmols/mg protein | Intracellular adenosine, Liver [1, 7]: 16.4 ± 2.4 nmols/mg protein | effect on adenosine levels, all organs studied ([1]; folinic acid administered alone): increase | effect of coadministration on steroid-mediated adenosine depletion ([1]; folinic acid coadministered with DHEA or methyltestosterone): completely abrogated

CC(C)CCC[C@@H](C)[C@H]1CC[C@H]2[C@@H]3CC=C4C[C@@H](O)CC[C@]4(C)[C@H]3CC[C@]12C [CH, cholesterol]
prevention of DHEA-induced S phase depletion ([2]; 48 hours): very little effect | prevention of DHEA-induced S phase depletion ([2]; 72 hours): no effect | reversal of DHEA-induced growth inhibition [3]: no such effect

C[C@]12CC[C@H](O)CC1=CC[C@@H]1[C@@H]2CC[C@]2(C)C(=O)CC[C@@H]12 [DHEA, dehydroepiandrosterone]
inhibition of G6PDH enzyme activity (in words) ([4]; various doses in the μM range, compared to controls): inhibited the enzyme activity in a statistically significant manner | inhibition of the activity of purified G6PDH compared to control ([4]; concentration not given): 72% | cell morphology ([2]; DHEA exposure (data not shown)): rounded shape | proportion of cells in S phase ([2]; with increasing exposure time (48 and 72 hours)): progressively reduced | proportion of cells in S phase ([5]; 200 μM DHEA, after 24 hours, continued through the treatment): decreased | overall effect on cell cycle ([5]; 25-200 μM DHEA, 24-72 hours): G1 block in HT-29 SF cells in a time- and dose-dependent manner | G2M phase cells ([5]; 25 or 50 μM DHEA, after 48 hours): transient increase | percentage of cells in G1 phase ([5]; 25 or 50 μM DHEA, after 72 hours): increased | cell cycle distribution ([5]; 25 or 50 μM DHEA, after the initial 24 hours): unchanged | proportion of cells in S phase ([5]; 25 or 50 μM DHEA, as time of exposure increased): progressively decreased | inhibition of growth ([6]; 0-200 μM DHEA, 0-72 hours): time- and dose-dependent inhibition of growth | exposure time after which cell number was reduced compared to controls ([6]; 12.5 μM DHEA): 72 h | exposure time after which cell number was reduced compared to controls ([6]; 25 μM DHEA): 48 h | exposure time after which cell number was reduced compared to controls ([6]; 50 μM DHEA): 48 h | exposure time after which cell number was reduced compared to controls ([6]; 200 μM DHEA): 24 h

C[C@@](O)(CCO)CC(=O)O [MVA, mevalonic acid]
prevention of DHEA-induced S phase depletion ([2]; 48 hours): partially prevented | prevention of DHEA-induced S phase depletion ([2]; 72 hours): not | prevention of DHEA-induced rounded shape ([2]; supplement added to culture medium (data not shown)): prevented | reversal of DHEA-induced growth inhibition [3]: partially overcome

C[C@]12CCC(=O)C=C1CC[C@@H]1[C@@H]2CC[C@@]2(C)[C@H]1CC[C@]2(C)O [Methyl-testosterone, methyltestosterone]
effect on adenosine across organs ([1]; administered daily for two weeks): multi-organ depletion of adenosine | depletion of adenosine in brain [1, 8]: 34% | depletion of adenosine in heart [1, 8]: 22% | Intracellular adenosine, Brain [1, 9]: 0.42 ± 0.06 nmols/mg protein | Intracellular adenosine, Heart [1, 9]: 8.3 ± 1.0 nmols/mg protein | Intracellular adenosine, Liver [1, 9]: 16.5 ± 0.9 nmols/mg protein | Intracellular adenosine, Brain ([1]; methyltestosterone 120 mg/kg): 0.32 ± 0.03 nmols/mg protein | Intracellular adenosine, Heart ([1]; methyltestosterone 120 mg/kg): 6.0 ± 0.4 nmols/mg protein | Intracellular adenosine, Liver ([1]; methyltestosterone 120 mg/kg): 5.1 ± 0.5 nmols/mg protein

CC(C)=CCC/C(C)=C/CC/C(C)=C/CC/C=C(\C)CC/C=C(\C)CCC=C(C)C [SQ, squalene]
reversal of DHEA-induced growth inhibition [3]: no such effect
